Here are results for two molecules from patent US10316056B2, “Chemical compounds and use thereof for improving muscular quality” (BIOPHYTIS, priority 2014, dated 2019).

Assay [1] has as its system myostatin gene expression in C2C12 cells. Description: Inhibition of myostatin expression in C2C12 cells (qPCR). It counts as cell-based. The settings on record: Mus musculus, percentage myostatin gene expression in cells in contact with the compounds related to control cells, C2C12, 6 h. Summed up:
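C2C12 myoblasts differentiated to myotubes for 5 days in 2% serum, then treated 6 h with compounds in serum-free, low-glucose (1 g/l) DMEM; IGF-1 100 ng/ml as reference. Myostatin mRNA quantified by RT-qPCR, expressed relative to untreated control as R=2^-ΔΔCt.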

Assay [2] has as its system myogenin transcripts. The assay can be described thus: Mice subjected to a high-fat diet: myogenin transcripts of the Soleus muscle. The assay is classed as in vivo, C57BL/6J mice. The settings on record: 5 mg/kg orally; high-fat diet for 6 weeks; FIG. 5B. As to the method:
The 20E as comparative compound and the compounds according to the invention (Nos. 51 and 93) were administered orally, at a dose of 5 mg/kg of body weight, to 12-week-old C57BL/6J mice subjected to a high-fat diet for 6 weeks. The effect of the compounds on the weight and the amount of proteins of the Soleus muscle and also the transcripts of genes involved in myogenesis were evaluated.
Myogenesis, which is the process for forming muscle tissues, is controlled by several myogenic transcription factors which act as end effectors of the signaling cascade and produce transcripts involved in the various stages of development. The roles of the transcription factors have been described in various journals (Sabourin and Rudnicki 2000 and Le Grand and Rudnicki 2007). The Pax7 protein (Paired-box protein 7) maintains a population of satellite cells in quiescence and, with Myf5 (Myogenic factor 5), plays a role in the expansion of activated myoblasts. The MyoD protein (Myoblast Determination protein) appears to determine the differentiation potential of activated myoblasts, and cooperates with myogenin and the MEF2 (Myocyte Enhancer Factor 2) protein to control and bring about differentiation. Finally, MRF4 (Muscle-specific Regulatory Factor 4) is required for hypertrophy, even though it probably plays other roles. […]
The relative differences in gene expression between treatments are expressed as increase or decrease in the number of cycle times [Ct] compared with the control group, the [Ct] value of each gene having been standardized with the beta-actin gene.
The in vivo study is carried out by evaluating the effect of 20E as comparative compound and of the molecules according to the invention (Nos. 51 and 93) administered orally, at a dose of 5 mg/kg of body weight, to C57BL/6 mice subjected to a high-fat diet for 6 weeks. The effect of the molecules on the weight and the amount of proteins of the Soleus muscle and also the transcripts of genes involved in myogenesis were evaluated.

Turning to `CCSCC(=O)[C@H]1CC[C@@]2(O)C3=CC(=O)[C@@H]4C[C@@H](O)[C@@H](O)C[C@]4(C)C3CC[C@]12C` (stereo partly drawn) [Compound 93, (2S,3R,5R,10R,13R,14S,17S)-17-(2-ethylsulfanylacetyl)-2,3,14-trihydroxy-10,13-dimethyl-2,3,4,5,9,11,12,15,16,17-decahydro-1H-cyclopenta[a]phenanthren-6-one], the mrna remaining at 10 µM in assay [1] is less than 70%. In addition, the “transcript of the myogenin gene” value in assay [2] is “increase”.
On the same counts, the results for `CCC(CC)C(=O)N(CCOC)C(C)[C@H]1CC[C@@]2(O)C3=CC(=O)[C@@H]4C[C@@H](O)[C@@H](O)C[C@]4(C)C3CC[C@]12C` (stereo partly drawn) [Compound 51, 2-ethyl-N-(2-methoxyethyl)-N-[1-[(2S,3R,5R,10R,13R,14S,17S)-2,3,14-trihydroxy-10,13-dimethyl-6-oxo-2,3,4,5,9,11,12,15,16,17-decahydro-1H-cyclopenta[a]phenanthren-17-yl]ethyl]butanamide] are less than 70% and “increase”.
